Usually Ki stands for a measure of affinity in units of concentration, obtained from inhibition or displacement. For orientation: EC50 means the concentration that produces a half-maximal response.

We go through 11 compounds from US20080009546A1 (Chevron U.S.A. Inc., priority 2005, published 2008).

Like-named read-outs stand apart in the source and are kept apart here. Where only a bound is given, the exact number is not on record here.

The test system of test [1] is NMDA receptor. Put plainly: [3H]MK-801 binding assay, NMDA receptors in guinea pig brain membranes. As to conditions: for Relative affinity: compared to that of Memantine. On the procedure: Hartley guinea pigs were sacrificed, and their brains were quickly removed and weighed. The brains then were homogenized in 50 mM Tris HCl buffer, pH 7.7, using a Polytron homogenizer. The homogenate was centrifuged at 40,000×g for 15 min, rehomogenized, and centrifuged again. The final pellet was resuspended in Tris-HCl, pH 7.7, at a final concentration of 6.67 mg original wet weight of tissue/ml. […] The samples were then filtered through glass fiber filters on a Tomtec cell harvester. The filters were washed 3 times with 3 ml of cold buffer. Filters were dried overnight and counted next day on a Wallac Betaplate Reader.
The binding experiments were conducted as follows. […] For each compound, graphs were prepared containing individual competition curves obtained for that compound. IC50 values and Hill coefficients were calculated using the program Prism. Ki values were calculated using the Chang Prusoff transformation: Ki=IC50/(1+L/Kd)
where L is radioligand concentration and Kd is the binding affinity of the radioligand, as determined previously by saturation analysis. […] In each experiment, one standard compound was simultaneously run on each 96 well plate.

Test [2] has as its system NMDA receptor. Put plainly: Whole-cell voltage-clamp recordings of NMDA evoked currents in hypocretin neurons (hypothalamic slices). To be noted: bath application, -60 mV, mean±SEM. In kind it is cell-based, mouse.
Test [3] concerns primary neurons from rat cerebral cortex. Put plainly: NMDA-induced LDH release assay in primary cortical neurons (neuroprotection). To be noted: for EC50: two experiments, 300 uM NMDA + 50 μM glycine 15 minutes, LDH after 24 hours, read-out: average EC50 (±SD), NMDA-induced LDH release. In kind it is cell-based. As to the method: The neuroprotective properties of drugs have been studied in vitro, using neurons cultured from cortex, cerebellum or retina. […] Neurotoxicity is determined in this assay by measuring lactate dehydrogenase (LDH), a method which is simple, accurate and reproducible. We conducted pilot studies to test if poly-lysine-coated plates would be suitable as a matrix upon which to plate fetal neurons, compared to astrocyte-coated plates. We also compared the use of growth medium to neurobasal medium supplemented with B27 in the pilot experiments. The concentrations of NMDA (300-500 μM), glycine (10-50 μM), and memantine (10-100 μM) were varied, and optimum concentrations and times determined from these pilot studies were then chosen for the main study. The assay is described below.
Fetal rat neocortical cells were cultured on a mouse astroglial feeder layer. To obtain mouse astroglial cells for the feeder layer, cortices were harvested from 1-day old Swiss Webster mice (Charles River, Hollister, Calif.) according to the procedure described by Rose et al (1993). After dissecting cortices in ice-cold dissecting medium, they were minced and incubated in 0.09% trypsin in media stock for 1 hr, followed by resuspension in growth medium containing 10% equine serum and 10% fetal bovine serum. A single-cell suspension was obtained by triturating through fire-bored glass pipettes, and the resulting cell suspension was plated at a density of 0.5-0.75 hemispheres/24-well plate/9.6 ml, with 0.4 ml/well. Plates were incubated in a humidified incubator at 37° C., 5% CO2. Astroglial cells become confluent in about 2-3 weeks, at which time these cultures are ready to be used as feeder layers upon which neuronal cultures can be plated. Neuronal cells were obtained from gestational Sprague-Dawley rats E16-E18, using a similar dissection procedure. Rat embryos were dissected to obtain cortical tissue, which was plated as a single-cell suspension at a density of 1.4 hemispheres/24-well plate/9.6 ml, with 0.4 ml/well. These cells were plated on the existing astroglial feeder layer, and were incubated at 37° C., 5% CO2. After 5 days in culture, cytosine arabinoside (10 μM) was added to the wells to inhibit glial cell proliferation, and after 24 hours, the medium was replaced with fresh growth medium. Cells were fed with fresh growth medium every 2 days, until the experiments were performed. For coating plates with poly-lysine, we used poly-d-lysine hydrobromide (Sigma Cat # P7280) at a concentration of 0.1 mg/ml to coat each well using a minimum volume of 0.2 ml/well. After coating for 5 minutes, the solution was aspirated and wells were rinsed thoroughly with sterile tissue culture grade water. After drying for 2 hours, plates were ready for use. Neuronal cultures were plated onto poly-lysine-coated plates at the same density as above. For the pilot study, some of the cultures were fed with 1:1 ratio of growth medium: neurobasal medium (GIBCO)+B-27 supplement (2%), while the rest of the cultures were fed with growth medium alone (Losi et al., 2006). For the main study, we used astroglial feeder layers to plate the neuronal cultures, and used a mix (1:1) of growth medium with neurobasal medium+B-27 supplement for feeding the cultures.
After 11-14 days in culture, neuronal cells were confluent and experiments were performed. Cells were washed twice using sterile Locke's buffer (154 mM NaCl, 5.6 mM KCl, 2.3 mM CaCl2, 3.6 mM NaHCO3, 5.5 mM D-glucose, 5 mM HEPES, pH 7.4), and then exposed to the various treatment compounds. […] After 15 minutes, cultures were washed twice and incubated overnight in media stock. After 24 hours, supernatants and lysates were collected to measure LDH activity. LDH activity was measured by the reduction of NAD, which was utilized in the stoichiometric conversion of a tetrazolium dye using a kit (Sigma TOX-7). Supernatants were removed from the wells and centrifuged before LDH measurements. The adherent cells were lysed to obtain total LDH. […]
A general note: Release of lactate dehydrogenase indicates damage to the cell membrane.

[4] abbreviates: guinea pig brain membrane preparation (Table 29), read-out: Ki.
Setting [5] is: Rattus norvegicus, Primary neuron.
Where [6] appears, read: NMDA 300 μM + 10 μM glycine, astrocyte-coated rat neurons, GM/NB + B-27 fed, 21 hour incubation.
[7] abbreviates: NMDA 300 μM + 10 μM glycine, poly-lysine-coated rat neurons, GM/NB + B-27 fed, 40 hour incubation.
Where [8] appears, read: NMDA 300 uM + 50 uM glycine, astrocyte-coated rat neurons, GM/NB + B-27 fed, 24 hour incubation.
The mark [9] stands for this setting: NMDA 300 uM + glycine 50 uM, Plate #4, poly-lysine-coated rat neurons, GM/NB + B-27 fed, 24 hour incubation.
The mark [10] stands for this setting: NMDA 300 uM + glycine 50 uM, Plate #5, astrocyte-coated rat neurons, GM fed, 24 hour incubation.
Where [11] appears, read: NMDA 300 μM - 21 hr, astrocyte-coated rat neurons, GM/NB + B-27 fed, 21 hour incubation.
Where [12] appears, read: NMDA 300 uM - 40 hr, poly-lysine-coated rat neurons, GM/NB + B-27 fed, 40 hour incubation.
Setting [13] is: NMDA 500 μM + 10 μM glycine, astrocyte-coated rat neurons, GM/NB + B-27 fed, 21 hour incubation.
Where [14] appears, read: NMDA 500 uM + 10 uM glycine, poly-lysine-coated rat neurons, GM/NB + B-27 fed, 40 hour incubation.
Where [15] appears, read: NMDA 500 μM - 21 hr, astrocyte-coated rat neurons, GM/NB + B-27 fed, 21 hour incubation.
Setting [16] is: NMDA 500 uM - 40 hr, poly-lysine-coated rat neurons, GM/NB + B-27 fed, 40 hour incubation.

On to `CC12CC3(N)CC4C1CC1CC2C(N)(C3)C4(C)C1` (centres unmarked) [MDT-9, 1,6-dimethyl-2,4-diaminodiamantane], for which the Relative affinity in the test on NMDA receptor [1] is 0.032. In addition, the inhibition constant Ki on NMDA receptor [1] (setting [4]) was determined as 22.5 ± 0.9 µM. Also, the “inhibition of the peak amplitude of NMDA evoked currents” value amounted to 13.2±9% with NMDA receptor [2] (10 μM) and 15.2±4.8% in the test with NMDA receptor [2] (100 μM).

For `CC12CC3CC4C1CC1CC2C(N)(C3)C4(C)C1` (centres unmarked) [MDT-43, 1,6-dimethyl-2-aminodiamantane], the Relative affinity with NMDA receptor [1] was found to be 0.143. Also, on NMDA receptor [1] (setting [4]), the Ki came out at 5.1 ± 0.7 µM. Further, in test [3] (setting [5]), the EC50 is 28.4 ± 12.8 µM.

With `CN[C@H](CC(=O)O)C(=O)O` [NMDA], on NMDA receptor [1] (standard compounds at the NMDA site (Table 27), read-out: Ki), the Ki was found to be 596 µM. Besides, the “% (Control Wash = 100)” value in test [3] (setting [6]) was found to be 144%; in test [3] (setting [7]) it was 116%; in test [3] (setting [8]), 271%; in test [3] (setting [9]), 163%; in test [3] (setting [10]), 109%; in test [3] (setting [11]), 166%. For the same compound, the “% (Control Wash = 100)” value in test [3] (setting [12]) stood at 127%; in test [3] (setting [13]) it was 139%; in test [3] (setting [14]), 114%; in test [3] (setting [15]), 147%; in test [3] (setting [16]) it was 125%. Also, the “Secreted LDH (Avg)” value in test [3] (setting [6]) was determined as 0.44; in test [3] (setting [7]), 0.39; in test [3] (setting [8]) it was 0.76; in test [3] (setting [9]) it was 0.69; in test [3] (setting [10]), 0.20; in test [3] (setting [11]), 0.52. The “Secreted LDH (Avg)” value in test [3] (setting [12]) was found to be 0.45; in test [3] (setting [13]), 0.51; in test [3] (setting [14]), 0.44; in test [3] (setting [15]) it was 0.51; in test [3] (setting [16]) it was 0.48. Besides, the “Secreted/(total + secreted) (Avg)” value amounted to 11.95 in test [3] (setting [6]); 13.33 in test [3] (setting [7]); 19.61 in test [3] (setting [8]); 17.79 in test [3] (setting [9]); 6.37 in test [3] (setting [10]); 13.82 in test [3] (setting [11]). In addition, the “Secreted/(total + secreted) (Avg)” value in test [3] (setting [12]) is given as 14.55; in test [3] (setting [13]), 11.56; in test [3] (setting [14]) it was 13.07; in test [3] (setting [15]), 12.23; in test [3] (setting [16]), 14.35. Further, the “Total LDH (Avg)” value in test [3] (setting [6]) turned out to be 3.25; in test [3] (setting [7]), 2.56; in test [3] (setting [8]), 3.10; in test [3] (setting [9]), 3.19; in test [3] (setting [10]), 2.90; in test [3] (setting [11]), 3.22. The “Total LDH (Avg)” value is listed as 2.61 in test [3] (setting [12]); 3.91 in test [3] (setting [13]); 2.92 in test [3] (setting [14]); 3.65 in test [3] (setting [15]); 2.91 in test [3] (setting [16]).

Consider `CC12CC3C4CC5(C)CC3C(C1)C(N)(C5)C4C2` [MDT-51, 4,9-dimethyl-1-aminodiamantane], for which the Relative affinity with NMDA receptor [1] is 0.155. Further, the Ki at NMDA receptor [1] (setting [4]) is 4.7 ± 2.4 µM. Further, in test [3] (setting [5]), the concentration for a half-maximal effect (EC50) is 15.7 ± 9.1 µM.

For `NC12CC3C4CC5CC3C(C1)C(C5)C4C2` [MDT-3], the Relative affinity in the test on NMDA receptor [1] is given as 0.021. Moreover, the inhibitory constant (Ki) on NMDA receptor [1] (setting [4]) was 34.6 ± 3.7 µM. Moreover, the “inhibition of the peak amplitude of NMDA evoked currents” value with NMDA receptor [2] (10 μM) and in the test on NMDA receptor [2] (100 μM) was “did not produce inhibition” each time.

For the compound 2-aminotriamantane [MDT-50], on NMDA receptor [1] ([3H]MK-801 (1 nM), guinea pig brain membrane preparation, read-out: Ki (binding affinity)), the inhibitory constant (Ki) worked out at 19.1 µM. This compound gave a Relative affinity in the test on NMDA receptor [1] of 0.038. In addition, in test [3], the EC50 was found to be 107 ± 88.3 µM.

`CC12CC3CC4C5CC(N)(CC41)CC2C5C3` [MDT-24, 1-methyl-4-aminodiamantane]: the Relative affinity with NMDA receptor [1] amounted to 0.045. For the same compound, at NMDA receptor [1] (setting [4]), the Ki worked out at 13.4 ± 5.1 µM. Moreover, in test [3] (setting [5]), the EC50 came to 34.3 ± 11.3 µM.

Compound `CC12CC3(N)CC4C5CC(CC41)CC2C5C3` (single isomer, unassigned) [MDT-22 (prep from Example 4)] displayed a Relative affinity in the test on NMDA receptor [1] of 0.332. Moreover, the inhibition constant Ki on NMDA receptor [1] (setting [4]) turned out to be 2.2 ± 0.9 µM.

In the case of `O=C(O)C12CC3CC4C5CC(CC41)CC2C5C3` [MDT-38], at NMDA receptor [1] (setting [4]), the Ki is over 1000 µM.

As for `CC12CC3CC4C1CC1CC2C(O)(C3)C4(C)C1` (centres unmarked) [MDT-44, 1,6-dimethyl-2-hydroxydiamantane], the Ki on NMDA receptor [1] (setting [4]) is over 1000 µM.

On to `CC12CC3CC4C1CC1(O)CC2C(C3)C4(C)C1` [MDT-45, 1,6-dimethyl-4-hydroxydiamantane], for which the Relative affinity in the test on NMDA receptor [1] came out at 0.007. Also, the Ki on NMDA receptor [1] (setting [4]) stood at 98.6 ± 0.1 µM.
